From patent US4029801A, “Pharmaceutical compositions and methods of treating hypertension” (priority 1970, dated 1977)
Like-named read-outs stand apart in the source and are kept apart here.

Columns and labels:
[1] = test system: blood pressure and heart rate; assay: Method 1 (rat): hypotensive activity in anaesthetised rats, i.v.; conditions: for minimal effective dose: Rattus norvegicus, iv; for Significant bradycardia (dose; decrease in heart rate of more than 30%): anaesthetised rat, i.v., cumulative dose
Protocol: Rats were anaesthetised with pentobarbitone sodium (60 mg/kg) and the jugular vein, trachea and carotid artery were cannulated. […] A decrease in heart rate of more than 30% from control values was considered to be significant bradycardia.

[2] = target: T1, histamine (Cavia porcellus, UniProt P31389); assay: Antihistamine activity by the method of Alps et al.; conditions: for antihistamine activity: result in words
T1 construct: from tissue
T1 sequence (P31389 whole entry): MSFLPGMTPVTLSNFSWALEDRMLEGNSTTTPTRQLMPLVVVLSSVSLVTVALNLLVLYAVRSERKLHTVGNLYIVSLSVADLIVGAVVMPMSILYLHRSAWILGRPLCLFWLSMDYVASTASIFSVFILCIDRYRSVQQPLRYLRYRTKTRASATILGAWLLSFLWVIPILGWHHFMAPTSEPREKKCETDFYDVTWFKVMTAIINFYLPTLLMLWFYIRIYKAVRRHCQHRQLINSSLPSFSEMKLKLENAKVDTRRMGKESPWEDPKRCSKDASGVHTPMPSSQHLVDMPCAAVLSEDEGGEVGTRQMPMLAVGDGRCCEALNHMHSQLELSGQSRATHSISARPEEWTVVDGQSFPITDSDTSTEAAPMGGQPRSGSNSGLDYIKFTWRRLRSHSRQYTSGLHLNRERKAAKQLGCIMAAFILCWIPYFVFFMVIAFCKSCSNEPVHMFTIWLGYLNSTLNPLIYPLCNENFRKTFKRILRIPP

[3] = test system: α-adrenoceptor; assay: α-Adrenoceptor antagonism on the guinea pig aortic strip; conditions: for α-blockade pA2: Table 4; for α-adrenoceptor antagonism: result in words; for pA2 (α-adrenoceptor antagonism): guinea pig aortic strip
Excerpt: Carried out on the guinea pig aortic strip [Furchgott and Bhadrakom (1953) J. Pharmac. exp. Ther. 108, 129-143] by the method of Alps et al [Br. J. Pharmac. 1972 44, 52-62].

[4] = Antiarrhythmic activity; conditions: result in words
[5] = test system: blood pressure; assay: Tests for action on the cardiovascular system: hypotensive activity (activity in method 1, rats or cats, or method 2), reported in words; type: in vivo, rat, cat; conditions: standard test procedure, result in words
In short: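 Method 1: pentobarbitone-anaesthetised cats, test compounds i.v. at 0.1-25.6 mg/kg, aortic blood pressure, heart rate and left ventricular pressure recorded. Method 2: renal hypertensive rats (figure-8 ligature plus contralateral nephrectomy, 6 weeks), dosed IP or orally; systolic pressure by tail plethysmography before and 2 and 24 h post-dose versus controls.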

[6] = test system: systolic pressure; assay: Method 2: anti-hypertensive activity in renal hypertensive rats; type: in vivo, rat; conditions: for Pressure reduced to: hypertensive rat
Protocol: Method 2 (hypertensive rats)
Male or female rats are rendered hypertensive by applying a figure of 8 ligature around one kidney and contralateral nephrectomy. Blood pressure stabilises at a hypertensive level after 6 weeks. Systolic pressure is measured indirectly using a Decker Caudal Plethysmograph A control group of rats is run with each group treated with drug. Each group usually consists of six rats. Drugs are usually administered by the IP or oral routes. Pressures are read prior to drug administration and at two and 24 hours thereafter.
Falls in systolic blood pressure 2 hr after an oral dose of 40 mg/kg: >50
mm, +++; 50-30 mm, ++; 30-15 mm, +; <15 mm, ±. g Oral dose of 75 mg/kg
h Oral dose of 10 mg/kg. i Oral dose of 2.5 mg/kg.

[7] = Anti-inflammatory activity; type: in vivo; conditions: result in words
[8] = test system: blood pressure and heart rate; assay: Method 1 (cat): blood pressure, heart rate and left ventricular pressure in anaesthetised cats, i.v.; type: in vivo; conditions: 3.2 mg/kg
Protocol: Cats were anaesthetised with pentobarbitone sodium (30 mg/kg) and the cephalic vein, femoral and carotid arteries and trachea were cannulated. The carotid cannula was introduced into the left ventricle and the femoral cannula into the aorta. Blood pressure and heart rate were recorded from the aortic cannula and left ventricular pressure from the carotid cannula. The test compunds were administered intravenously (0.1-25.6 mg/kg).

[9] = Depressant activity; type: in vivo; conditions: result in words
[10] = test system: oxotremorine; assay: Antioxotremorine activity; type: in vivo; conditions: result in words
[11] = Anti-convulsant activity; type: in vivo; conditions: result in words
[12] = test system: mouse; assay: Acute toxicity (LD50) in the mouse; conditions: result in words
[13] = Acute toxicity (LD50) in the mouse; conditions: in vivo
[14] = 0.25 h, read-out: Hypotensive Activity
[15] = Table 4, read-out: Antihistamine pA2 (converted)
[16] = read-out: Significant hypotension (dose; fall of 30 mm mercury or more in diastolic pressure)
[17] = pA2 (antihistamine activity), Table 2

For `O=C(NC1CCN(CCc2ccc3ccccc3c2)CC1)c1ccccc1` [Example 13, 1-[2-(2-Naphthyl)ethyl]-4-benzamidopiperidine], the minimal effective dose [1, 14] was 1.6 to 3.2 mg/kg, the Kb [2, 15] was 25.1 nM and the antihistamine activity [2] was “antihistamine”. The “α-blockade pA2” value [3] was 7.4, the α-adrenoceptor antagonism [3] was “α-adrenoceptor antagonism” and the antiarrhythmic activity [4] was “antiarrythmic activities”. The hypotensive activity [5] was “hypotensive activity”.

With `O=C(CCCN1CCC(NC(=O)c2ccccc2)CC1)c1ccc(F)cc1` [Example 19, 1-[4-(4-Fluorophenyl)-4-oxobutyl]-4-benzamidopiperidine] the minimal effective dose [1, 14] was 0.8 mg/kg, the minimal effective dose [1, 16] was 0.8 to 1.6 mg/kg and the “Significant bradycardia (dose; decrease in heart rate of more than 30%)” value [1] was 1.6 mg/kg. The Kb [2, 17] was 2.51 nM, the antihistamine activity [2] was “antihistamine” and the “Pressure reduced to” value ([6]; 10 mg/kg p.o., from 188 mmHg) was 138 mmHg. The “α-blockade pA2” value [3] was 7.5, the “pA2 (α-adrenoceptor antagonism)” value [3] was 7.4 and the hypotensive activity [5] was “marked hypotensive activity”. The anti-inflammatory activity [7] was “antiinflammatory activity”, the “Significant lowering of blood pressure” value [8] was 38 mmHg and the cardiac effort index [8] was “lowered”. The cardiac output [8] was “decreased”, the heart rate lowered [8] was 28.9% and the “myocardial contractile force decreased” value [8] was 25.7%. The depressant activity [9] was “depressant”.

For `O=C(NC1CCN(CC(O)c2ccccc2)CC1)c1ccccc1` (stereo not drawn) [Example 20, 1-(2-Hydroxy-2-phenylethyl)-4-benzamidopiperidine], the minimal effective dose [1, 14] was 6.4 to 12.8 mg/kg, the antihistamine activity [2] was “antihistamine” and the “α-blockade pA2” value [3] was 6.6. The antioxotremorine activity [10] was “antioxotremorine activity” and the hypotensive activity [5] was “hypotensive activity”.

In the case of `O=C(NC1CCN(CC(O)c2ccc(Cl)c(Cl)c2)CC1)c1ccccc1` (stereo not drawn) [Example 36, 1-[2-(3,4-Dichlorophenyl)-2-hydroxyethyl]-4-benzamidopiperidine], the minimal effective dose [1, 14] is reported as under 30 mg/kg, the anti-convulsant activity [11] is reported as “anti-convulsant activities” and the hypotensive activity [5] is reported as “hypotensive”.

In the case of `O=C(CCCN1CCC(NC(=O)c2ccccc2)CC1)c1ccccc1` [Example 43, 4-Benzamido-1-(4-phenyl-4-oxobutyl)piperidine], the minimal effective dose [1, 14] is reported as 0.8 mg/kg, the minimal effective dose [1, 16] is reported as 0.8 to 1.6 mg/kg and the “Significant bradycardia (dose; decrease in heart rate of more than 30%)” value [1] is reported as 0.8 to 1.6 mg/kg. For the same compound, the Kb [2, 15] was 0.251 nM, the Kb [2, 17] was 0.316 nM and the antihistamine activity [2] was “antihistamine”. For the same compound, the “Anti-hypertensive Activity” value ([6]; Table 3, fall in systolic blood pressure 2 hr after oral dose of 40 mg/kg) was “+ ++”, the “Pressure reduced to” value ([6]; 40 mg/kg p.o., from 174 mmHg) was 122 mmHg and the “pA2 (α-adrenoceptor antagonism)” value [3] was 7.7. The α-adrenoceptor antagonism [3] was “α-adrenoceptor antagonist”, the antiarrhythmic activity [4] was “antiarrythmic activities” and the hypotensive activity [5] was “marked hypotensive activity”. For the same compound, the “Significant lowering of blood pressure” value [8] was 52 mmHg, the cardiac effort index [8] was “lowered” and the cardiac output [8] was “lowered”. For the same compound, the heart rate lowered [8] was 35% and the “myocardial contractile force decreased” value [8] was 33%.

With `O=C(NC1CCN(CCc2ccc(Cl)cc2)CC1)c1ccccc1` [Example 48, 4-Benzamido-1-[2-(p-chlorophenyl)ethyl]piperidine] the minimal effective dose [1, 14] was 6.4 to 12.8 mg/kg, the anti-convulsant activity [11] was “anti-convulsant activity” and the hypotensive activity [5] was “hypotensive activity”.

In the case of `O=C(CCCN1CCC(NC(=O)c2ccccc2)CC1)c1ccc(O)cc1` [Example 63, 4-Benzamido-1-[4-(4-hydroxyphenyl)-4-oxobutyl]piperidine], the minimal effective dose [1, 14] is reported as 25.6 mg/kg, the Kb [2, 15] is reported as 1.26 nM and the “α-blockade pA2” value [3] is reported as 7.0. The α-adrenoceptor antagonism [3] was “α-adrenoceptor antagonism”, the toxicity [12] was “remarkably low toxicity” and the LD50 ([13]; ip) was 1630 mg/kg. The LD50 at 24 h ([13]; ip) was over 4000 mg/kg, the LD50 ([13]; po) was over 4000 mg/kg and the hypotensive activity [5] was “good hypotensive activity”.
